Legend:
[1] = Growth inhibition of human WM266.4 cells expressing BRAF mutant by SRB assay; type: functional, cell-based; details: WM 266-4
[2] = biological target: Serine/threonine-protein kinase B-raf (Homo sapiens, UniProt P15056, V600E)
Description: Inhibition of BRAF V600E mutant

[3] = Metabolic stability in mouse liver microsomes assessed as drug metabolism at 10 uM; type: ADME, Microsome; details: read-out: Activity
[4] = Half life in plasma of BRAF mutant expressing WM266.4 cells xenografted Crl:CD1-Foxn1nu mouse at 2 mg/kg, iv; type: ADME, organism-based; design: dose 2 mg/kg, route intravenous
[5] = Clearance in tumor of BRAF mutant expressing WM266.4 cells xenografted Crl:CD1-Foxn1nu mouse at 2 mg/kg, iv; type: ADME, organism-based, Neoplasm; design: dose 2 mg/kg, route intravenous; details: in vivo
[6] = AUC in tumor of BRAF mutant expressing WM266.4 cells xenografted Crl:CD1-Foxn1nu mouse at 2 mg/kg, iv; type: ADME, organism-based, Neoplasm; design: dose 2 mg/kg, route intravenous
[7] = AUC in plasma of BRAF mutant expressing WM266.4 cells xenografted Crl:CD1-Foxn1nu mouse at 2 mg/kg, iv; type: ADME, organism-based; design: dose 2 mg/kg, route intravenous
[8] = Half life in tumor of BRAF mutant expressing WM266.4 cells xenografted Crl:CD1-Foxn1nu mouse at 2 mg/kg, iv; type: ADME, organism-based, Neoplasm; design: dose 2 mg/kg, route intravenous
[9] = Clearance in plasma of BRAF mutant expressing WM266.4 cells xenografted Crl:CD1-Foxn1nu mouse at 2 mg/kg, iv; type: ADME, organism-based; design: dose 2 mg/kg, route intravenous
[10] = Cmax in tumor of BRAF mutant expressing WM266.4 cells xenografted Crl:CD1-Foxn1nu mouse at 2 mg/kg, iv; type: ADME, organism-based, Neoplasm; design: dose 2 mg/kg, route intravenous; details: read-out: Cmax_tumor
[11] = Cmax in plasma of BRAF mutant expressing WM266.4 cells xenografted Crl:CD1-Foxn1nu mouse at 2 mg/kg, iv; type: ADME, organism-based; design: dose 2 mg/kg, route intravenous
[12] = Half life in BALB/cAnNCrl mouse plasma at 2 mg/kg, iv; type: ADME, organism-based; design: dose 2 mg/kg, route intravenous
[13] = Cmax in BALB/cAnNCrl mouse muscle at 2 mg/kg, iv; type: ADME, organism-based, Muscle tissue; design: dose 2 mg/kg, route intravenous
[14] = Half life in BALB/cAnNCrl mouse muscle at 2 mg/kg, iv; type: ADME, organism-based, Muscle tissue; design: dose 2 mg/kg, route intravenous
[15] = Clearance in BALB/cAnNCrl mouse plasma at 2 mg/kg, iv; type: ADME, organism-based; design: dose 2 mg/kg, route intravenous
Muscle tissue = assay: Clearance in BALB/cAnNCrl mouse muscle at 2 mg/kg, iv; type: ADME, organism-based; design: dose 2 mg/kg, route intravenous; details: in vivo
[16] = AUC in BALB/cAnNCrl mouse plasma at 2 mg/kg, iv; type: ADME, organism-based; design: dose 2 mg/kg, route intravenous
[17] = AUC in BALB/cAnNCrl mouse muscle at 2 mg/kg, iv; type: ADME, organism-based, Muscle tissue; design: dose 2 mg/kg, route intravenous
[18] = Cmax in BALB/cAnNCrl mouse plasma at 2 mg/kg, iv; type: ADME, organism-based; design: dose 2 mg/kg, route intravenous

Chain of Serine/threonine-protein kinase B-raf (P15056 2-766 V600E limits assumed): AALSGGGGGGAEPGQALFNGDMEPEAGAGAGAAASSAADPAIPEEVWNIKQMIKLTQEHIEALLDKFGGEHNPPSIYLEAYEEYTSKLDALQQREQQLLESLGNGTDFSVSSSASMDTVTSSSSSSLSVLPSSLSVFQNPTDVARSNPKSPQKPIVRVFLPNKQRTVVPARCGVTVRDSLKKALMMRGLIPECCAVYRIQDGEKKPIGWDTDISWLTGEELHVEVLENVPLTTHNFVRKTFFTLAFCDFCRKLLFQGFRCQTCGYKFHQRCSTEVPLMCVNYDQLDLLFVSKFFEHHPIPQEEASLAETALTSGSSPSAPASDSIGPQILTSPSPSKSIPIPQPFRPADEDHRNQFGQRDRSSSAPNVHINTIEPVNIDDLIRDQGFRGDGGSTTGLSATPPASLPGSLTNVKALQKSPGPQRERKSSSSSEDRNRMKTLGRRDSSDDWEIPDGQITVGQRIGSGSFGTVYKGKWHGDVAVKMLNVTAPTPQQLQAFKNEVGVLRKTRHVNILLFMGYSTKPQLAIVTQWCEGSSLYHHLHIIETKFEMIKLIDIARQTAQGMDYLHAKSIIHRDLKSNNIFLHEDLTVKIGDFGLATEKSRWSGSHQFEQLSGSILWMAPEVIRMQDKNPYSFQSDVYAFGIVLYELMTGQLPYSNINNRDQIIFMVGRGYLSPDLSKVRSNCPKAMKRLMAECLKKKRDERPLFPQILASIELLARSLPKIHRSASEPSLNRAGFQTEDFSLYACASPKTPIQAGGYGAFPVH

| Structure (SMILES) | IC50 [2] [µM] | IC50 [1] [µM] | other results |
| --- | --- | --- | --- |
| O=C(Cc1cc(F)cc(F)c1)Nc1ccc(Oc2ccnc3[nH]c(=O)[nH]c23)cc1 | > 100 | 29 | – |
| O=C(Cc1cccc(OC(F)(F)F)c1)Nc1ccc(Oc2ccnc3[nH]c(=O)[nH]c23)cc1 | – | 23.9 | – |
| CNC(=O)c1cc(Oc2ccc(NC(=O)Nc3ccc(Cl)c(C(F)(F)F)c3)cc2)ccn1 [SORAFENIB] | – | 5 | – |
| O=C(Cc1cccc(C(F)(F)F)c1)Nc1ccc(Oc2ccnc3[nH]c(=O)[nH]c23)cc1 | – | 5 | – |
| O=c1[nH]c2nccc(Oc3ccc(NS(=O)(=O)c4ccc(Cl)cc4)cc3)c2[nH]1 | > 100 | 39 | – |
| O=C(Nc1ccc(Oc2ccnc3[nH]c(=O)[nH]c23)cc1)c1cccc(OC(F)(F)F)c1 | > 100 | > 100 | – |
| O=C(Nc1ccc(Oc2ccnc3[nH]c(=O)[nH]c23)cc1)c1cccc(C(F)(F)F)c1 | 17.2 | 22 | – |
| O=C(Nc1ccc(Oc2ccnc3[nH]c(=O)[nH]c23)cc1)c1ccc(Cl)c(C(F)(F)F)c1 | 15.9 | 8.1 | – |
| O=C(Nc1ccc(Oc2ccnc3[nH]c(=O)[nH]c23)cc1)Nc1ccc(C(F)(F)F)cc1 | > 100 | > 100 | – |
| O=c1[nH]c2nccc(Oc3ccc(NS(=O)(=O)c4ccc(Cl)c(C(F)(F)F)c4)cc3)c2[nH]1 | > 100 | 40.3 | – |
| O=C(Nc1ccc(Oc2ccnc3[nH]c(=O)[nH]c23)cc1)c1ccccc1 | > 100 | > 100 | – |
| O=C(Nc1ccc(Oc2ccnc3[nH]c(=O)[nH]c23)cc1)Nc1ccccc1C(F)(F)F | > 100 | > 100 | – |
| O=c1[nH]c2nccc(Oc3ccc(NS(=O)(=O)c4ccccc4F)cc3)c2[nH]1 | 32.5 | 62 | – |
| O=c1[nH]c2nccc(Oc3ccc(NS(=O)(=O)c4ccc(F)cc4)cc3)c2[nH]1 | > 100 | – | – |
| O=C(Nc1ccc(Oc2ccnc3[nH]c(=O)[nH]c23)cc1)c1cc(F)cc(N2CCOCC2)c1 | > 100 | 44 | – |
| O=C(Cc1ccccc1)Nc1ccc(Oc2ccnc3[nH]c(=O)[nH]c23)cc1 | 16.7 | 73 | – |
| O=C(Nc1ccccc1)Nc1ccc(Oc2ccnc3[nH]c(=O)[nH]c23)cc1 | > 100 | > 100 | – |
| COc1cccc(CC(=O)Nc2ccc(Oc3ccnc4[nH]c(=O)[nH]c34)cc2)c1 | – | 40 | – |
| O=C(Nc1ccc(Cl)cc1)Nc1ccc(Oc2ccnc3[nH]c(=O)[nH]c23)cc1 | > 100 | > 100 | – |
| O=c1[nH]c2nccc(Oc3ccc(NS(=O)(=O)c4ccc(C(F)(F)F)cc4)cc3)c2[nH]1 | > 100 | 41 | – |

Further compounds by falling IC50 [2], results first:

| IC50 [2] [µM] | Structure (SMILES) | IC50 [1] [µM] | other results |
| --- | --- | --- | --- |
| 14 | O=C(Nc1ccc(Oc2ccnc3[nH]c(=O)[nH]c23)cc1)c1cccc(Br)c1 | 18 | – |
| 12.2 | O=c1[nH]c2nccc(Oc3ccc(NS(=O)(=O)c4cccs4)cc3)c2[nH]1 | 15.6 | – |
| 2.84 | O=C(Nc1ccc(Oc2ccnc3[nH]c(=O)[nH]c23)cc1)Nc1cccc(F)c1 | 13.9 | – |
| 0.86 | O=C(Nc1ccc(Oc2ccnc3[nH]c(=O)[nH]c23)cc1)Nc1cc(C(F)(F)F)ccc1N1CCOCC1 | 5.2 | – |
| 0.85 | O=c1[nH]c2nccc(Oc3ccc(NS(=O)(=O)c4ccccc4)cc3)c2[nH]1 | 62.7 | metabolised at 10 µM [3]: 5% |
| 0.6 | O=C(Nc1ccc(Oc2ccnc3[nH]c(=O)[nH]c23)cc1)Nc1cc(F)cc(N2CCOCC2)c1 | 41 | – |
| 0.305 | CCn1c(=O)n(CC)c2c(Oc3ccc(NC(=O)Nc4ccc(Cl)c(C(F)(F)F)c4)cc3)ccnc21 | 22 | – |
| 0.163 | Cn1c(=O)[nH]c2nccc(Oc3ccc(NC(=O)Nc4cccc(C(C)(C)C)c4)cc3)c21 | 2.82 | – |
| 0.1 | O=C(Nc1ccc(Oc2ccnc3[nH]c(=O)[nH]c23)cc1)Nc1cc(Cl)cc(C(F)(F)F)c1 | 12.8 | – |
| 0.085 | O=c1[nH]c2nccc(Oc3ccc(NC(=S)Nc4ccc(Cl)c(C(F)(F)F)c4)cc3)c2[nH]1 | 10.7 | – |
| 0.061 | Cn1c(=O)n(C)c2c(Oc3ccc(NC(=O)Nc4ccc(Cl)c(C(F)(F)F)c4)cc3)ccnc21 | 4.8 | – |
| 0.06 | Cn1c(=O)[nH]c2c(Oc3ccc(NC(=O)Nc4cccc(C(C)(C)C)c4)cc3)ccnc21 | 7 | – |
| 0.052 | O=C(Nc1ccc(Oc2ccnc3[nH]c(=O)[nH]c23)cc1)Nc1cc(C(F)(F)F)ccc1F | 3.3 | – |
| 0.046 | Cn1c(=O)[nH]c2c(Oc3ccc(NC(=O)Nc4cc(C(F)(F)F)ccc4F)cc3)ccnc21 | 1.94 | – |
| 0.045 | Cn1c(=O)[nH]c2c(Oc3ccc(NC(=O)Nc4ccc(Cl)c(C(F)(F)F)c4)cc3)ccnc21 | 3.7 | half-life [12]: 4.72 h; Cmax [13]: 8080 nM; half-life [14]: 4.35 h; clearance [15]: 0.833 mL/min; CL (Muscle tissue): 0.009 L/h; AUC [16]: 16.4 µM·h; AUC [17]: 9.46 µM·h; Cmax [18]: 3230 nM |
| 0.04 | O=C(Nc1ccc(Sc2ccnc3[nH]c(=O)[nH]c23)cc1)Nc1ccc(Cl)c(C(F)(F)F)c1 | 2.1 | – |
| 0.029 | O=C(Nc1ccc(Sc2ccnc3[nH]c(=O)[nH]c23)cc1)Nc1cc(C(F)(F)F)ccc1F | 1.28 | – |
| 0.028 | O=C(Nc1ccc(Sc2ccnc3[nH]c(=O)[nH]c23)cc1)Nc1cccc(C(F)(F)F)c1 | 1.42 | – |
| 0.027 | COc1cc(Cl)c(C(F)(F)F)cc1NC(=O)Nc1ccc(Oc2ccnc3[nH]c(=O)[nH]c23)cc1 | 1.6 | metabolised at 10 µM [3]: 8% |
| 0.023 | O=C(Nc1ccc(Oc2ccnc3[nH]c(=O)[nH]c23)cc1)Nc1ccc(Cl)c(C(F)(F)F)c1 | 4.2 | metabolised at 10 µM [3]: 0%; half-life [4]: 0.8 h; CL [5]: 0.16 L/h; AUC [6]: 0.468 µM·h; AUC [7]: 0.718 µM·h; half-life [8]: 1.24 h; clearance [9]: 1.95 mL/min; Cmax [10]: 207 nM; Cmax [11]: 1060 nM |
| 0.022 | Cn1c(=O)[nH]c2nccc(Oc3ccc(NC(=O)Nc4ccc(Cl)c(C(F)(F)F)c4)cc3)c21 | 5.3 | metabolised at 10 µM [3]: 11%; half-life [4]: 2.58 h; CL [5]: 0.006 L/h; AUC [6]: 4.5 µM·h; AUC [7]: 3.26 µM·h; half-life [8]: 9.72 h; clearance [9]: 0.283 mL/min; Cmax [10]: 1150 nM; Cmax [11]: 2450 nM |
| 0.021 | O=C(Nc1ccc(Oc2ccnc3[nH]c(=O)[nH]c23)cc1)Nc1cccc(OC(F)(F)F)c1 | > 100 | – |
| 0.014 | O=C(Nc1ccc(Oc2ccnc3[nH]c(=O)[nH]c23)cc1)Nc1cccc(C(F)(F)F)c1 | > 100 | – |
| 0.012 | COc1ccc(C(F)(F)F)cc1NC(=O)Nc1ccc(Oc2ccnc3[nH]c(=O)[nH]c23)cc1 | 4.2 | – |
